One assay concerns NLRP3 inflammasome. The experiment in a line: IL-1β release by LPS-primed macrophages stimulated with NLRP3 activators (ELISA). In kind it is cell-based, mouse. The settings on record: BMDM pretreated with A769662, LPS-primed, ATP and nigericin 40 min. The method, then: Macrophage culture and stimulation—Femurs and tibias from C57BL/6 mice, Ampkα1^−/− mice, and Il10rb^−/− mice at 6-10 weeks of age were used to generate bone-marrow-derived macrophages (BMDM) as described (Hornung et al., 2008). Macrophages were cultured in DMEM supplemented with 10% FBS, 20% L929-cell conditioned medium, and 100 U/ml penicillin-streptomycin for 7-10 days. Bone marrow was isolated from MWS Nlrp3^A350VneoRCreT, FCAS Nlrp3^L351PneoCreT and NOMID Nlrp3^D301NneoCreT conditional knock-in mice (Bonar et al., 2012; Brydges et al., 2009), and were allowed to differentiate over 7 days with addition of fresh mouse recombinant GMCSF every three days. (Z)-4-hydroxitamoxifen at 0.4 μg/ml was added to cells 24 hr prior to treatment to induce the mutant Nlrp3 allele. Immortalized mouse BMDM were grown in DMEM supplemented with 10% FBS and 100 U/ml penicillin-streptomycin. All cells were grown at 37° C. with 5% CO2. NLRP3 inflammasome activation was induced priming for 4 hr with ultrapure LPS (100 ng/ml) followed by treatment with the NLRP3 activators ATP (4 mM) and nigericin (10 μM) for 45 min, unless otherwise indicated, and monosodium urate (MSU) crystals (400 μg/ml) and 1,2-dioleoyl-3-trimethylammoniumpropane (DOTAP) liposomes (50 μg/ml) for 3 hr. In Nlrp3 mutant macrophages IL-1b production was induced by LPS treatment for 16 hr at 37° C., whereas FCAS macrophages were incubated at 32° C. without LPS addition. AIM2 inflammasome activation was induced by 4 hr LPS priming and transfection with lipofectamine 3000 and the AIM2 activator poly(dA:dT) (1 μg/ml) for 8 hr. For choline deprivation experiments, the cells were cultured in CMRL1066 medium with or without choline for 2-3 hr before priming with LPS and kept during the experiment.
(§1) Protein Immunoblotting and ELISA—Mitochondria were isolated using Mitochondria Isolation kit. Whole cell lysates were prepared in NP40 buffer containing a protease inhibitor cocktail and a phosphatase inhibitor cocktail, and supernatants were analyzed by SDS-PAGE. […]
On the technique in general: ELISA stands for enzyme-linked immunosorbent assay.

The test system of the next assay is Slc44a1/CTL1. The experiment in a line: Slc44a1/CTL1 induction by LPS in BMDM (QPCR). In kind it is cell-based, mouse. The following applies: BMS345541-pretreated BMDM treated with LPS. The method, then:
RNA Isolation and Quantitative Real-Time PCT (QPCR)—RNA was extracted using AllPrep DNA/RNA Mini kit, and cDNA was synthesized using SUPERSCRIPT™ VILO™ cDNA Synthesis Kit. mRNA expression was determined by QPCR in a CFX96 thermal cycler (Biorad) as described (Zhong et al., 2016c). Data are presented in arbitrary units and were calculated by 2^(-delta delta CT) method. Primer sequences were obtained from the NIH qPrimerDepot (mouseprimerdepot.nci.nih.gov) and provided by Integrated DNA technologies, as set forth below.

The test system of assay [1] is C57BL/6 mice. The experiment in a line: LPS-induced septic shock. In kind it is in vivo, mouse. On the procedure: LPS-induced septic shock and air pouch model—Eight- to twelve-week-old C57BL/6 mice were subjected to LPS-induced septic shock as described (Zhong et al., 2016c). Briefly, 50 mg/kg LPS was intraperitoneal (IP) injected, and when indicated, animals were pretreated with the ChoKα inhibitor MN58B 2.5 mg/kg or vehicle (sodium chloride) via IP injection daily, starting three days before LPS challenge. Mice were analyzed for survival and circulating cytokines (3 hr after LPS challenge). None of the animals was excluded from the analysis.

Assay [2] has as its system C57BL/6 mice. Briefly: Synovium-like air pouch gout model (MSU crystals). In kind it is in vivo, mouse. The method, then:
Synovium-like air pouch gout model—Subcutaneous air pouches were generated by repeated injection of sterile air into 8-12-week old C57BL/6 mice to create an accessible space that develops a synovium-like membrane within 7 days as described (Wang et al., 2016). Afterward, mice were treated with MN58b IP (2.5 mg/kg) or vehicle, 24 hr before injecting lml MSU crystals (3 mg/ml) into the air pouch. Pouch tissue and fluids were harvested 8 hr later for analysis. None of the animals was excluded from the analysis.

Assay [3] deals with MWS Nlrp3^A350VneoRCreT mutant mice. Briefly: Muckle Wells Syndrome mice. In kind it is in vivo, mouse. The settings on record: 2.5 mg/kg IP BID for 15 days. On the procedure:
Muckle Wells Syndrome Mice—Sixteen- to twenty-two-week-old male MWS Nlrp3^A350VneoRCreT mutant mice were subjected to MN58b (2.5 mg/kg) or vehicle IP injection BID daily for 15 days. Tamoxifen (50 mg/kg) was administered daily via IP for 4 days after first MN58b (or vehicle) treatment, and once more on day 7 to maintain Cre expression. At the endpoint, blood, spleen and liver were collected for analysis. Complete blood counts were preformed using a ScilVet Animal Blood Counter (ABX Diagnostics). Livers were paraffin embedded and hematoxylin and eosine staining was performed to assess liver histology. None of the animals was excluded from the analysis and liver histology was blind examined.

For the next assay, the system named is ChoKα. Briefly: ChoKα levels after colchicine treatment. In kind it is cell-based.
Assay [4] relates to CTL1. Briefly: CTL1 levels after colchicine treatment. In kind it is cell-based.
Sequence of CTL1 (Q6X893 whole entry): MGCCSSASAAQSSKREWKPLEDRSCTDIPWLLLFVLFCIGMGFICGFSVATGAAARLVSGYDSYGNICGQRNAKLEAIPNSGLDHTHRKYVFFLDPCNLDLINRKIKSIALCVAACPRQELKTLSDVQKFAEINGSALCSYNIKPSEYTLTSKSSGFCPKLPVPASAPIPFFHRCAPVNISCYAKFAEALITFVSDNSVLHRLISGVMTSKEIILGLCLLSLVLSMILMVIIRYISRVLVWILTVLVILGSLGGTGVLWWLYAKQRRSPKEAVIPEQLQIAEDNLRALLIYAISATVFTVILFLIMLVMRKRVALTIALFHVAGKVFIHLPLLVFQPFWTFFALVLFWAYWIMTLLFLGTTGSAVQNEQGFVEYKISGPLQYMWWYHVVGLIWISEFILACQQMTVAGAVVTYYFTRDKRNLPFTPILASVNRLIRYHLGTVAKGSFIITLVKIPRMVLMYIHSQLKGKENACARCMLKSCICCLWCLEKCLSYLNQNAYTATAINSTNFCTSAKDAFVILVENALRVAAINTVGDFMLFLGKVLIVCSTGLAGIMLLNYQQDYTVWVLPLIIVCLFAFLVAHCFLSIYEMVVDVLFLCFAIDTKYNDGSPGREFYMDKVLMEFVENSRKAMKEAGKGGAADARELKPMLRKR
The subject of assay [5] is choline mobilization via the Kennedy pathway. The experiment in a line: Choline, phosphocholine and phosphatidylcholine content of LPS-stimulated BMDM (NMR, MS). The settings on record: BMDM, LPS 4 hr. In kind it is cell-based, mouse. The method, then:
Choline and Phosphocholine Analysis by NMR—BMDM were treated with LPS for 4 hr and then were collected and processed for NMR analysis as described (Guma et al., 2015a; Tiziani et al., 2009). Polar metabolite isolation was performed using a modified Bligh-Dyer procedure (Wu et al., 2008). Extracts were dried using a CentriVap refrigerated vacuum concentrator (Labconco, Kansas City, MO, USA). Dried extracts were reconstituted in 100 mM phosphate buffer (pH 7.0) prepared in 10% H2O/90% D2O (Sigma) that contained 0.5 mM sodium 3-(trimethylsilyl)propionate-2,2,3,3,-d4 (TMSP) as the internal standard. One-dimensional ^1H NMR spectra were acquired on a Bruker Avance III 500 MHz with 1.7 mm TCI MicroCryoProbe system (Bruker BioSpin Corp., Billerica, MA) equipped with an autosampler at 300 K and processed as previously described (Lodi et al., 2017; Lu et al., 2017; Ludwig and Gunther, 2011). Metabolite assignment and quantification were performed using the Chenomx 8.2 NMR Suite (Chenomx Inc., Edmonton, Alberta, Canada), the Birmingham Metabolite Library (Ludwig et al., 2012), and the Human Metabolome Database (Wishart et al., 2012).
Total phosphatidylcholine and mitochondrial lipids analysis by mass spectrometry—Total phosphatydilcholine (PC) analysis was measured in RSM932A-pretreated BMDM stimulated with LPS for 4 hr, while mitochondrial lipids were measured in mitochondria isolated from BMDM cultured in control or choline deficient medium and subjected to different treatments for 24 hr. Samples were processed for UHPLC-MS/MS analysis and analysis was performed on a hybrid quadrupole-Orbitrap mass spectrometer (Q Exactive, Thermo Scientific, Bremen, Germany) coupled to an Accela 1250 UHPLC system equipped with a quaternary pump, vacuum degasser, and open autosampler with temperature controller (6° C.; Fisher Scientific, San Jose, CA, USA). […]

Assay [6] relates to CTL1. Briefly: CTL1 protein expression in LPS stimulated BMDM (immunoblot). The settings on record: LPS stimulation. In kind it is cell-based, mouse. On the procedure: Macrophage culture and stimulation—Femurs and tibias from C57BL/6 mice, Ampkα1^−/− mice, and Il10rb^−/− mice at 6-10 weeks of age were used to generate bone-marrow-derived macrophages (BMDM) as described (Hornung et al., 2008). Macrophages were cultured in DMEM supplemented with 10% FBS, 20% L929-cell conditioned medium, and 100 U/ml penicillin-streptomycin for 7-10 days. Bone marrow was isolated from MWS Nlrp3^A350VneoRCreT, FCAS Nlrp3^L351PneoCreT and NOMID Nlrp3^D301NneoCreT conditional knock-in mice (Bonar et al., 2012; Brydges et al., 2009), and were allowed to differentiate over 7 days with addition of fresh mouse recombinant GMCSF every three days. (Z)-4-hydroxitamoxifen at 0.4 μg/ml was added to cells 24 hr prior to treatment to induce the mutant Nlrp3 allele. Immortalized mouse BMDM were grown in DMEM supplemented with 10% FBS and 100 U/ml penicillin-streptomycin. All cells were grown at 37° C. with 5% CO2. […]
as §1
For orientation: Immunoblotting shows a protein as a band on a membrane.

On to `N#Cc1c(O)c2c(-c3ccc(-c4ccccc4O)cc3)csc2[nH]c1=O` [A769662], for which, in the assay on NLRP3 inflammasome, the IL-1β production result is on record as “significantly reduced”.

For `Cc1ccc2nc(NCCN)c3ncc(C)n3c2c1` [BMS345541], the Slc44a1/CTL1 induction entry with Slc44a1/CTL1 is on record as “blocked”.

For `CN(C)c1cc[n+](Cc2ccc(CCCCc3ccc(C[n+]4ccc(N(C)C)cc4)cc3)cc2)cc1.[Br-].[Br-]` [MN58b], the LPS-induced death entry in the assay on C57BL/6 mice [1] (2.5 mg/kg IP daily for 3 days before 50 mg/kg LPS IP) is “prevented”. The “circulating IL-1β” value in the assay on C57BL/6 mice [1] (2.5 mg/kg IP daily for 3 days before LPS, 3 hr after LPS) is listed as “reduced”. Besides, in the assay with C57BL/6 mice [1] (circulating, 3 hr after LPS), the IL-6 production result was “did not inhibit” and the TNF production result was “did not inhibit”. The “total leukocyte recruitment into the pouch” value in the assay with C57BL/6 mice [2] (2.5 mg/kg 24 hr before MSU crystals) is recorded as “attenuated”. In addition, the “production of IL-1β” value in the assay with C57BL/6 mice [2] (2.5 mg/kg 24 hr before MSU crystals, pouch) is listed as “reduced”. For the same compound, in the assay with C57BL/6 mice [2] (2.5 mg/kg IP 24 hr before MSU crystals, pouch harvested 8 hr later, p<0.01), the “reduction of IL-1β release” value was determined as 66%. Moreover, the “reduction of MSU crystal-induced leukocyte recruitment” value in the assay with C57BL/6 mice [2] (2.5 mg/kg IP 24 hr before MSU crystals, pouch harvested 8 hr later, p<0.05) is listed as 47%. Besides, in assay [3], the MWS splenomegaly entry was “reduced”, the granulocytes entry is given as “reduction”, the liver size entry is “reduced” and the lymphocyte count result is given as “without an effect”. Moreover, in assay [3], the monocytes entry was “reduction” and the “total white blood cells count” value was “reduction”.

On to `COc1cc2c(c(OC)c1OC)-c1ccc(OC)c(=O)cc1[C@@H](NC(C)=O)CC2` [colchicine], for which the “reduction of ChoKα levels” value in the assay on ChoKα was determined as 85%. Further, the “reduction of CTL1 levels” value in the assay on CTL1 [4] is 90%.

lipopolysaccharide [LPS] returned an increase of phosphocholine in assay [5] (p<0.001) of 559%. Further, the “increase of intracellular choline” value in assay [5] (p<0.01) was 238%. In the assay with CTL1 [6], the “increase of CTL1 expression” value turned out to be 6 fold.

For the origin of these results see patent US12458659B2, “Methods for treating macrophage-mediated diseases, and methods of identifying agents useful therefore” (The Regents of the University of California, priority 2019, dated 2025).
